Assay results from US20100143980A1, “SYNTHESIS OF NOVEL XYLOSIDES AND POTENTIAL USES THEREOF” (priority 2007, published 2010).
“Also recorded” adds a separate entry of the source.

tested on: CHO pgsA-745; assay: Priming of glycosaminoglycan synthesis by xylosides, 35S-sulfate incorporation into purified HS/CS; assay type: cell-based; conditions: 1 uM
Experimental: To determine whether the xylosides are able to prime the synthesis of glycosaminoglycans in cells in vitro experiments were performed using CHO pgsA-745. The cells were treated with appropriate primers in the presence of 35S—Na2SO4, glycosaminoglycans were purified and analyzed as described below. 1×10^4 cells were plated per well in Ham's/F12 complete growth medium in a 24-well plate. The cells were incubated at 37° C. in a humidified incubator for 24 hours to a confluency of about 50%. The cells were washed with sterile PBS and replaced with 450 μL ham's/F12 containing 10% dialyzed FBS. Solutions containing a specific primer at 100× the final concentration were prepared. 5 μL of appropriate 100× primer were added to various wells to yield a final concentration of 100 μM. 50 μCi of 35S—Na2SO4 was also added to each well as tracer. The 24-well plates were placed back in the 37° C. incubator for 24 hours before the addition of 100 μL 6× pronase solution followed by incubation at 37° C. overnight.
(§1) To determine whether the xylosides are able to prime the synthesis of glycosaminoglycans in cells, in vitro experiments were performed using CHO pgsA-745. The cells were treated with appropriate primers in the presence of 35S—Na2SO4, glycosaminoglycans were purified and analyzed as described below. 1×10^4 cells were plated per well in Ham's/F12 complete growth medium in a 24-well plate. The cells were incubated at 37° C. in a humidified incubator for 24 hours to a confluency of about 50%. The cells were washed with sterile PBS and replaced with 450 uL ham's/F12 containing 10% dialyzed FBS. Serial dilutions of the primers at 100× the final concentration were prepared. 5 uL of appropriate 100× primer were added to various wells to yield a final concentration of 1, 10, 100 and 1000 uM respectively. 50 uCi of 35S—Na2SO4 was also added to each well as tracer. The 24-well plates were placed back in the 37° C. incubator for 24 hours before the addition of 100 uL 6× pronase solution followed by incubation at 37° C. overnight.
The entire contents of the wells were transferred to a microcentrifuge tube and subjected to centrifugation at 16,000×g for 5 minutes. The supernatant was transferred to a fresh tube and half-a-volume of 0.016% Triton X-100 was added. The diluted supernant was loaded on 0.2 mL DEAE-sepharose column pre-equilibrated with 2 mL of 20 mM NaOAc buffer pH 6.0 containing 0.1 M NaCl and 0.01% Triton X-100 and the column was washed with 4 mL of buffer described above. The bound HS/CS was eluted using 1.2 mL elution buffer, 20 mM NaOAc, pH 6.0, containing 1 M NaCl. The extent of priming by the various xyloside primers was evaluated by quantifying the 35S-radioactivity incorporated in to the purified HS/CS elute by liquid scintillation. 50 uL of the various elutes were added to 5 mL of scintillation cocktail and the vials were counted in a scintillation counter in triplicate. The amount of radioactivity corresponds to the total glycosaminoglycan synthesis due to the primer.
as §1, with “a) To” for “To”, “cells” for “cells,”, “^35S—Na2SO4,” for “35S—Na2SO4,”, “37 C” for “37° C.”, “^35S—Na2SO4” for “35S—Na2SO4”, “The 24-well plates were placed back in the 37° C. incubator for 24 hours before the addition of 100 uL 6× pronase solution followed by incubation at 37° C. overnight.” left out

For `O=S(=O)(c1ccccc1)[C@@H]1OC[C@@H](O)[C@H](O)[C@H]1O` [sulfone-phenyl xyloside], which “priming ability relative to the next highest primer at 1 uM” value is on record?
Its value is “four times that of the next highest priming activity seen at this concentration”.

same assay, conditions: 1 uM primer

For `O=S(=O)(c1ccccc1)[C@@H]1OC[C@@H](O)[C@H](O)[C@H]1O` [sulfone-phenyl xyloside], which “GAG priming activity at 1 uM (in words)” value is on record?
Its value is “better activity at concentration as low as 1 uM; also recorded: highest activity than any of the primers”.

same assay, conditions: 10 uM primer

For `O=S(=O)(c1ccccc1)[C@@H]1OC[C@@H](O)[C@H](O)[C@H]1O` [sulfone-phenyl xyloside], which “GAG priming activity at 10 uM (in words)” value is on record?
Its value is “significantly higher priming activity than other xylosides”.

For `OC1COC(n2cc(COc3ccc4c(c3)CCCC4)nn2)C(O)C1O` (stereo not shown) [tetrahydronaphthyl], which “GAG priming activity at 10 uM (in words)” value is on record?
The value was “significantly higher priming activity than other xylosides”.

Which “GAG priming activity at 10 uM (in words)” value does the source give for `O[C@@H]1[C@@H](O)[C@H](Sc2ccccc2)OC[C@H]1O` [thiophenyl, beta-D-thiophenyl xyloside, reference compound] here?
The value was “significantly higher priming activity than other xylosides”.

same assay, conditions: 100 uM

With `O=S(=O)(c1ccccc1)[C@@H]1OC[C@@H](O)[C@H](O)[C@H]1O` [sulfone-phenyl xyloside] as the compound, how does the “priming activity relative to the thio-phenyl and thio-pyridyl primers” value read?
Its value is “about 60%”.

same assay, conditions: CHO pgsA-745 cells; concentration not given

For `OC1COC(n2ccnn2)C(O)C1O` (stereo not shown) [compound 1], which “GAG priming ability (in words, relative to the comparator named)” value is on record?
Its value is “primed slightly better than the well known β-O-naphthyl xyloside”.

`OC1COC(n2ccnn2)C(O)C1O` (stereo not shown) [compound 2] was tested. Which “GAG priming ability (in words, relative to the comparator named)” value did it give?
Its value is “prime GAGs albeit in lesser quantities than their respective β-anomers”.

`OC1COC(n2cc(COc3cccnc3)nn2)C(O)C1O` (stereo not shown) [compound 6] was tested. Which “GAG priming ability (in words, relative to the comparator named)” value did it give?
Its value is “prime GAGs albeit in lesser quantities than their respective β-anomers”.

`OC1COC(n2cc(COc3ccccc3)nn2)C(O)C1O` (stereo not shown) [compound 8] was tested. Which “GAG priming ability (in words, relative to the comparator named)” value did it give?
The value was “prime GAGs albeit in lesser quantities than their respective β-anomers”.

How did the “GAG priming ability (in words, relative to the comparator named)” value turn out when `COc1ccc(OCc2cn(C3OCC(O)C(O)C3O)nn2)cc1` (stereo not shown) [compound 9] was run?
The value was “marginal effect on the priming ability”.

Which “GAG priming ability (in words, relative to the comparator named)” value does the source give for `COc1ccc(OCc2cn(C3OCC(O)C(O)C3O)nn2)cc1` (stereo not shown) [compound 10] here?
Its value is “prime GAGs albeit in lesser quantities than their respective β-anomers”.

For `OC1COC(n2cc(COc3ccc(-c4ccc(Br)cc4)cc3)nn2)C(O)C1O` (stereo not shown) [compound 17], which “GAG priming ability (in words, relative to the comparator named)” value is on record?
Its value is “decreased”.

With `OC1COC(n2cc(COc3ccc4cc(Br)ccc4c3)nn2)C(O)C1O` (stereo not shown) [compound 19] as the compound, how does the “GAG priming ability (in words, relative to the comparator named)” value read?
The value was “completely abolished the priming activity”.

With `OC1COC(n2cc(COc3ccc4c(c3)CCCC4)nn2)C(O)C1O` (stereo not shown) [compound 20] as the compound, how does the “GAG priming ability (in words, relative to the comparator named)” value read?
Its value is “did not significantly influence priming activity”.

`OC1COC(n2cc(COc3cc4ccccc4c4ccccc34)nn2)C(O)C1O` (stereo not shown) [compound 21] was tested. Which “GAG priming ability (in words, relative to the comparator named)” value did it give?
The value was “primed less GAG chains than the less hydrophobic xyloside (Table 1A: compound 18) did”.

With `OC1COC(n2cc(COCc3ccccc3)nn2)C(O)C1O` (stereo not shown) [compound 23] as the compound, how does the “GAG priming ability (in words, relative to the comparator named)” value read?
Its value is “prime GAGs albeit in lesser quantities than their respective β-anomers”.

With `OC1COC(n2cc(COCc3ccc(F)cc3)nn2)C(O)C1O` (stereo not shown) [compound 24] as the compound, how does the “GAG priming ability (in words, relative to the comparator named)” value read?
Its value is “down regulates the priming ability”.

For `OCc1cccc(COCc2cn(C3OCC(O)C(O)C3O)nn2)c1` (stereo not shown) [compound 25], which “GAG priming ability (in words, relative to the comparator named)” value is on record?
The value was “down regulates the priming ability”.

Which “GAG priming ability (in words, relative to the comparator named)” value does the source give for `OC1COC(n2cc(-c3ccccc3)nn2)C(O)C1O` (stereo not shown) [compound 29] here?
The value was “decreased the priming ability by two fold”.

How did the “GAG priming ability (in words, relative to the comparator named)” value turn out when `COc1ccccc1-c1cn(C2OCC(O)C(O)C2O)nn1` (stereo not shown) [compound 32] was run?
The value was “primed nearly two times the amount of GAG chains compared to the unsubstituted xyloside 29”.

With `COc1ccc(-c2cn(C3OCC(O)C(O)C3O)nn2)cc1` (stereo not shown) [compound 33] as the compound, how does the “GAG priming ability (in words, relative to the comparator named)” value read?
The value was “primed one-half the amount of GAG chains compared to the unsubstituted xyloside 29”.

For `COc1cc(OC)cc(-c2cn(C3OCC(O)C(O)C3O)nn2)c1` (stereo not shown) [compound 34], which “GAG priming ability (in words, relative to the comparator named)” value is on record?
Its value is “showed decrease priming compared to the unsubstituted xyloside 29”.

same assay, conditions: fold less efficient than compound 7

How did the “priming efficiency compared to phenyl substituted xyloside compound 7” value turn out when `OC1COC(n2cc(COc3cccnc3)nn2)C(O)C1O` (stereo not shown) [compound 5] was run?
Its value is 10 times.

same assay, conditions: relative to unsubstituted phenyl xyloside

Which “loss of priming activity by para nitro substitution” value does the source give for `O=[N+]([O-])c1ccc(OCc2cn(C3OCC(O)C(O)C3O)nn2)cc1` (stereo not shown) [compound 15] here?
The value was “approximately 30%”.

tested on: CHO pgsA-745; assay: Composition of HS and CS in the primed glycosaminoglycans (Chondroitinase AC digestion); assay type: cell-based; conditions: share of HS in total GAG
Experimental: (§2) To determine the composition of the HS and CS in the glycosaminoglycans synthesized, a small aliquot of the elute (300 uL) was diluted 10-fold and digested using Chondroitinase AC. The sample was subjected to precipitation to remove the disaccharide in the presence of cold chondroitin sulfate A and scintillation counted. This gives the amount of HS primed on the xylosides and the difference in the radioactivity corresponds to the amount of chondroitin sulfate in the purified glycoaminoglycan elute.
as §2, with “b) To” for “To”

For `OC1COC(n2cc(COc3ccc(F)cc3)nn2)C(O)C1O` (stereo not shown) [fluoro-substituted derivative], which “composition of HS in primed glycosaminoglycans (in words)” value is on record?
Its value is “Half”.

Which “composition of HS in primed glycosaminoglycans (in words)” value does the source give for `OC1COC(n2cc(COc3ccccc3)nn2)C(O)C1O` (stereo not shown) [triazole-O-phenyl] here?
Its value is “Half”.

With C-(2-naphthol)-xyloside as the compound, how does the “composition of HS in primed glycosaminoglycans” value read?
The value was −72%.
